Reference: patent US9512120B2, “Microbicidally active imidazopyridine derivatives” (Syngenta Participations AG, priority 2013, dated 2016)

How the values were obtained:
Gaeumannomyces graminis = Gaeumannomyces graminis / liquid culture (take-all of cereals); assay type: cell-based; conditions: PDB, 24° C., 4-5 days after application, read-out: control of Gaeumannomyces graminis (inhibition of growth, photometric)
Procedure: (§1) Gaeumannomyces graminis/Liquid Culture (Take-all of Cereals): Mycelial fragments of the fungus from cryogenic storage were directly mixed into nutrient broth (PDB potato dextrose broth). After placing a DMSO solution of test compound into a 96-well microtiter plate at an application rate of 200 ppm, the nutrient broth Cp.33, containing the fungal spores is added. The test plates were incubated at 24° C. and the inhibition of growth was determined photometrically 4-5 days after application.

[1] = tested on: Botryotinia fuckeliana (Botrytis cinerea); experiment: Botryotinia fuckeliana (Botrytis cinerea) / liquid culture (gray mould); assay type: cell-based; conditions: Vogels broth, 24° C., 3-4 days after application, read-out: control of Botryotinia fuckeliana (inhibition of growth, photometric)
Procedure: as §1, with “Botryotinia Fuckeliana (Botrytis cinerea)/Liquid” for “Gaeumannomyces graminis/Liquid”, “(Gray Mould): Conidia” for “(Take-all of Cereals): Mycelial fragments”, “(Vogels” for “(PDB potato dextrose”, “broth” for “broth Cp.33,”, “was” for “is”, “3-4” for “4-5”

[2] = tested on: Monographella nivalis (Microdochium nivale); experiment: Monographella nivalis (Microdochium nivale) / liquid culture (foot rot cereals); assay type: cell-based; conditions: PDB, 24° C., 4-5 days after application, read-out: control of Monographella nivalis (inhibition of growth, photometric)
Procedure: as §1, with “Monographella nivalis (Microdochium nivale)/Liquid” for “Gaeumannomyces graminis/Liquid”, “(Foot Rot” for “(Take-all of”, “Conidia” for “Mycelial fragments”, “broth” for “broth Cp.33,”, “was” for “is”

[3] = tested on: Puccinia recondita f. sp. Tritici; experiment: Puccinia recondita f. sp. tritici / wheat / leaf disc preventative (brown rust); assay type: in vivo; conditions: foliar, wheat leaf segments cv Kanzler, inoculated 1 day after application, assessed 7-9 days after application, read-out: control of Puccinia recondita f. sp. Tritici (percent disease control compared to untreated)
Procedure: Puccinia recondita f. Sp. Tritici/Wheat/Leaf Disc Preventative (Brown Rust): Wheat leaf segments cultivated variety (cv) Kanzler were placed on agar in 24-well plates and sprayed with formulated test compound diluted in water at an application rate of 200 ppm. The leaf disks were inoculated with a spore suspension of the fungus 1 day after application. The inoculated leaf segments were incubated at 19° C. and 75% relative humidity under a light regime of 12/12 h (light/dark) in a climate cabinet and the activity of a compound was assessed as percent disease control compared to untreated when an appropriate level of disease damage appears in untreated check leaf segments (7-9 days after application).

[4] = tested on: Phaeosphaeria nodorum (Septoria nodorum); experiment: Phaeosphaeria nodorum (Septoria nodorum) / wheat / leaf disc preventative (glume blotch); assay type: in vivo; conditions: Parastagonospora nodorum, foliar, wheat leaf segments cv Kanzler, inoculated 2 days after application, assessed 5-7 days after application, read-out: control of Phaeosphaeria nodorum (percent disease control compared to untreated)
Procedure: Phaeosphaeria nodorum (Septoria nodorum)/Wheat/Leaf Disc Preventative (Glume Blotch): Wheat leaf segments cv Kanzler were placed on agar in a 24-well plate and sprayed with formulated test compound diluted in water at an application rate of 200 ppm. The leaf disks are inoculated with a spore suspension of the fungus 2 days after application. The inoculated test leaf disks are incubated at 20° C. and 75% relative humidity under a light regime of 12/12 h (light/dark) in a climate cabinet and the activity of a compound is assessed as percent disease control compared to untreated when an appropriate level of disease damage appears in untreated check leaf disks (5-7 days after application).

Sclerotinia sclerotiorum = Sclerotinia sclerotiorum liquid culture (cottony rot / white mold); assay type: cell-based; conditions: PDB, 24° C., 3-4 days after application, read-out: control of Sclerotinia sclerotiorum (inhibition of growth, photometric)
Procedure: Sclerotinia sclerotiorum (Cottony Rot/White Mold): Mycelia fragments of a newly grown liquid culture of the fungus were directly mixed into nutrient broth (PDB potato dextrose broth). After placing a (DMSO) solution of test compound into a microtiter plate (96-well format) the nutrient broth containing the fungal material was added. The test plates are incubated at 24° C. and the inhibition of growth was determined photometrically 3-4 days after application.

[5] = tested on: Thanatephorus cucumeris (Rhizoctonia solani); experiment: Thanatephorus cucumeris (Rhizoctonia solani) / liquid culture (foot rot, damping-off); assay type: cell-based; conditions: PDB, 24° C., 3-4 days after application, read-out: control of Thanatephorus cucumeris (inhibition of growth, photometric)
Procedure: Thanatephorus cucumeris (Rhizoctonia solani)/Liquid Culture (Foot Rot, Damping-Off): Mycelia fragments of a newly grown liquid culture of the fungus are directly mixed into nutrient broth (PDB potato dextrose broth). After placing a DMSO solution of the test compounds into a 96-well microtiter plate at an application rate of 200 ppm, the nutrient broth containing the fungal material was added. The test plates were incubated at 24° C. and the inhibition of growth was determined photometrically 3-4 days after application.

Pyrenophora teres = Pyrenophora teres / barley / leaf disc preventative (net blotch); assay type: in vivo; conditions: foliar, barley leaf segments cv Hasso, inoculated two days after application, assessed 5-7 days after application, read-out: control of Pyrenophora teres (disease control compared to untreated)
Procedure: Pyrenophora Teres/Barley/Leaf Disc Preventative (Net Blotch): Barley leaf segments cv Hasso are placed on agar in a 24-well plate and sprayed with formulated test compound diluted in water at an application rate of 200 ppm. The leaf segments are inoculated with a spore suspension of the fungus two days after application of the test solution. The inoculated leaf segments are incubated at 20° C. and 65% relative humidity under a light regime of 12/12 h (light/dark) in a climate cabinet and the activity of a compound is assessed as disease control compared to untreated when an appropriate level of disease damage appears in untreated check leaf segments (5-7 days after application).

[6] = tested on: Mycosphaerella graminicola (Septoria tritici); experiment: Mycosphaerella graminicola (Septoria tritici) / liquid culture (Septoria blotch); assay type: cell-based; conditions: Zymoseptoria tritici, PDB, 24° C., 4-5 days after application, read-out: control of Mycosphaerella graminicola (inhibition of growth, photometric)
Procedure: as §1, with “Mycosphaerella graminicola (Septoria tritici)/Liquid” for “Gaeumannomyces graminis/Liquid”, “(Septoria Blotch): Conidia” for “(Take-all of Cereals): Mycelial fragments”, “broth” for “broth Cp.33,”, “was” for “is”

[7] = tested on: Glomerella lagenarium (Colletotrichum lagenarium); experiment: Glomerella lagenarium (Colletotrichum lagenarium) / liquid culture (anthracnose); assay type: cell-based; conditions: Colletotrichum orbiculare, PDB, 24° C., 3-4 days after application, read-out: control of Glomerella lagenarium (inhibition of growth, photometric)
Procedure: as §1, with “Glomerella lagenarium (Colletotrichum lagenarium)/Liquid” for “Gaeumannomyces graminis/Liquid”, “(Anthracnose): Conidia” for “(Take-all of Cereals): Mycelial fragments”, “broth” for “broth Cp.33,”, “was” for “is”, “is measured” for “was determined”, “3-4” for “4-5”

CCCn1c(-n2ncnc2N)nc2cncc(/C(C)=N\OCC=C(C)C)c21 [Compound 188]
≥ 80%: inhibition at 20 ppm (Gaeumannomyces graminis) | inhibition at 20 ppm [1] | inhibition at 20 ppm [2] | pest or weed control at 200 ppm [3] | pest or weed control at 200 ppm [4] | inhibition at 20 ppm (Sclerotinia sclerotiorum) | inhibition at 20 ppm [5] | pest or weed control at 200 ppm (Pyrenophora teres) | inhibition at 20 ppm [6]

CCCn1c(-n2ncnc2N)nc2cncc(/C(C)=N/OC/C=C\Cl)c21 [Compound 181]
≥ 80%: inhibition at 20 ppm (Gaeumannomyces graminis) | inhibition at 20 ppm [1] | inhibition at 20 ppm [2] | pest or weed control at 200 ppm [3] | inhibition at 20 ppm (Sclerotinia sclerotiorum) | inhibition at 20 ppm [5] | pest or weed control at 200 ppm (Pyrenophora teres) | inhibition at 20 ppm [6]

CCCON=C(C)c1cncc2nc(-n3ncnc3N)n(CC)c12 [Compound 143]
≥ 80%: inhibition at 20 ppm [1] | pest or weed control at 200 ppm [3] | pest or weed control at 200 ppm [4] | inhibition at 20 ppm (Sclerotinia sclerotiorum) | inhibition at 20 ppm [5] | pest or weed control at 200 ppm (Pyrenophora teres) | inhibition at 20 ppm [7] | inhibition at 20 ppm [6]

CCn1c(-n2ncnc2N)nc2cncc(-c3cccc(OC)c3OC)c21 [Compound 83, 2-[7-(2,3-dimethoxyphenyl)-1-ethylimidazo[4,5-c]pyridin-2-yl]-1,2,4-triazol-3-amine]
≥ 80%: inhibition at 20 ppm (Gaeumannomyces graminis) | inhibition at 20 ppm [1] | pest or weed control at 200 ppm [3] | pest or weed control at 200 ppm [4] | inhibition at 20 ppm [5] | pest or weed control at 200 ppm (Pyrenophora teres) | inhibition at 20 ppm [6]

CCn1c(-n2ncnc2N)nc2cncc(-c3cc(C(F)(F)F)ccc3F)c21 [Compound 84, 2-[1-ethyl-7-[2-fluoro-5-(trifluoromethyl)phenyl]imidazo[4,5-c]pyridin-2-yl]-1,2,4-triazol-3-amine]
≥ 80%: inhibition at 20 ppm (Gaeumannomyces graminis) | inhibition at 20 ppm [1] | inhibition at 20 ppm (Sclerotinia sclerotiorum) | inhibition at 20 ppm [5] | pest or weed control at 200 ppm (Pyrenophora teres) | inhibition at 20 ppm [6]

CCn1c(-n2ncnc2N)nc2cncc(-c3cc4ccccc4nc3F)c21 [Compound 66, 2-[1-ethyl-7-(2-fluoroquinolin-3-yl)imidazo[4,5-c]pyridin-2-yl]-1,2,4-triazol-3-amine]
≥ 80%: inhibition at 20 ppm (Gaeumannomyces graminis) | inhibition at 20 ppm [1] | pest or weed control at 200 ppm [4] | inhibition at 20 ppm (Sclerotinia sclerotiorum) | inhibition at 20 ppm [5] | pest or weed control at 200 ppm (Pyrenophora teres) | inhibition at 20 ppm [6]

CCCn1c(-n2ncnc2N)nc2cncc(-c3ccccc3F)c21 [Compound 121, 2-[7-(2-fluorophenyl)-1-propylimidazo[4,5-c]pyridin-2-yl]-1,2,4-triazol-3-amine]
≥ 80%: inhibition at 20 ppm (Gaeumannomyces graminis) | inhibition at 20 ppm [1] | pest or weed control at 200 ppm [3] | pest or weed control at 200 ppm [4] | inhibition at 20 ppm [5] | pest or weed control at 200 ppm (Pyrenophora teres) | inhibition at 20 ppm [7] | inhibition at 20 ppm [6]

CCn1c(-n2ncnc2N)nc2cncc(/C(C)=N/OC/C=C/Cl)c21 [Compound 150]
≥ 80%: inhibition at 20 ppm [1] | inhibition at 20 ppm [2] | pest or weed control at 200 ppm [3] | inhibition at 20 ppm (Sclerotinia sclerotiorum) | inhibition at 20 ppm [5] | pest or weed control at 200 ppm (Pyrenophora teres) | inhibition at 20 ppm [7] | inhibition at 20 ppm [6]

CCn1c(-n2ncnc2N)nc2cncc(-c3ccc(C)c(F)c3)c21 [Compound 41, 2-[1-ethyl-7-(3-fluoro-4-methylphenyl)imidazo[4,5-c]pyridin-2-yl]-1,2,4-triazol-3-amine]
≥ 80%: inhibition at 20 ppm [1] | pest or weed control at 200 ppm [3] | inhibition at 20 ppm (Sclerotinia sclerotiorum) | inhibition at 20 ppm [5] | pest or weed control at 200 ppm (Pyrenophora teres) | inhibition at 20 ppm [6]

CCn1c(-n2ncnc2N)nc2cncc(-c3cc(Cl)ccc3F)c21 [Compound 91, 2-[7-(5-chloro-2-fluorophenyl)-1-ethylimidazo[4,5-c]pyridin-2-yl]-1,2,4-triazol-3-amine]
≥ 80%: inhibition at 20 ppm (Gaeumannomyces graminis) | inhibition at 20 ppm [1] | inhibition at 20 ppm [2] | pest or weed control at 200 ppm [3] | inhibition at 20 ppm (Sclerotinia sclerotiorum) | inhibition at 20 ppm [5] | pest or weed control at 200 ppm (Pyrenophora teres) | inhibition at 20 ppm [7] | inhibition at 20 ppm [6]

CCn1c(-n2ncnc2N)nc2cncc(-c3ccc(Cl)cc3)c21 [Compound 35, 2-[7-(4-chlorophenyl)-1-ethylimidazo[4,5-c]pyridin-2-yl]-1,2,4-triazol-3-amine]
≥ 80%: inhibition at 20 ppm [1] | pest or weed control at 200 ppm [3] | inhibition at 20 ppm (Sclerotinia sclerotiorum) | inhibition at 20 ppm [5] | pest or weed control at 200 ppm (Pyrenophora teres) | inhibition at 20 ppm [7] | inhibition at 20 ppm [6]

CCn1c(-n2ncnc2N)nc2cncc(-c3ccc(C(F)(F)F)cc3Cl)c21 [Compound 97]
≥ 80%: inhibition at 20 ppm (Gaeumannomyces graminis) | inhibition at 20 ppm [1] | inhibition at 20 ppm [2] | pest or weed control at 200 ppm [3] | inhibition at 20 ppm (Sclerotinia sclerotiorum) | inhibition at 20 ppm [5] | pest or weed control at 200 ppm (Pyrenophora teres) | inhibition at 20 ppm [7] | inhibition at 20 ppm [6]

CCn1c(-n2ncnc2N)nc2cncc(-c3cc(F)cc(F)c3)c21 [Compound 37, 2-[7-(3,5-difluorophenyl)-1-ethylimidazo[4,5-c]pyridin-2-yl]-1,2,4-triazol-3-amine]
≥ 80%: inhibition at 20 ppm [1] | pest or weed control at 200 ppm [4] | inhibition at 20 ppm [5] | pest or weed control at 200 ppm (Pyrenophora teres) | inhibition at 20 ppm [7] | inhibition at 20 ppm [6]
